The source of these data is patent publication US20230295157A1, “3-(1H-IMIDAZOL-2-YL)-2,3,8,8A-TETRAHYDROINDOLIZIN-5(1H)-ONE DERIVATIVES USEFUL AS FACTOR XIA INHIBITORS” (JANSSEN PHARMACEUTICA NV, priority 2020, published 2023).

Structures are written as SMILES. Where two headings read alike, the source gives them in different places.

The target of one assay is human plasma kallikrein (Homo sapiens (Human), UniProt P03952). Nature of the assay: Kallikrein inhibition assay (FLINT) utilizing a quenched AMC peptide substrate. It is filed as biochemical. The conditions noted are these: 30 min preincubation, kinetic reads over 30 min, Z-Gly-Pro-Arg-AMC substrate 50 μM; read-out: Kallikrein Kin Inh IC50. Put shortly: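 Fluorogenic Z-Gly-Pro-Arg-AMC cleavage (50 μM substrate, 2 nM kallikrein, Tris pH 7.5, CaCl2, BSA, CHAPS, 2% DMSO) read kinetically at 340/440 nm for 30 min after 30-min compound pre-incubation. Compounds in 11-point 3-fold series from 1 μM; percent inhibition fitted to four-parameter equation for IC50.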

A further assay deals with Factor XIa (Homo sapiens (Human), UniProt P03951). Briefly: Factor XIa inhibition assay (FLINT) utilizing a fluorophore-quencher pair peptide substrate. The assay is classed as biochemical. Conditions: 30 min preincubation, read-out: FXIa Kin Inh IC50. Put shortly:
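FXIa ([…]) preincubated 30 min with compound (11-point 3-fold dilution, top 100 nM, 2% DMSO), then 15 μM quenched FXI Arg146-based peptide added; Tris pH 7.5, CaCl2, BSA, CHAPS. Fluorescence 485/520 nm read kinetically every 5 min over 30 min at RT; IC50 by 4-parameter fit.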

The mark [1] stands for this setting: kinetic reads over 30 min, 5Fam-[…]-K5Tamra substrate 15 μM.

A word on the IC50: it is the concentration that inhibits the measured activity by half.

Chain of human plasma kallikrein (P03952 391-638): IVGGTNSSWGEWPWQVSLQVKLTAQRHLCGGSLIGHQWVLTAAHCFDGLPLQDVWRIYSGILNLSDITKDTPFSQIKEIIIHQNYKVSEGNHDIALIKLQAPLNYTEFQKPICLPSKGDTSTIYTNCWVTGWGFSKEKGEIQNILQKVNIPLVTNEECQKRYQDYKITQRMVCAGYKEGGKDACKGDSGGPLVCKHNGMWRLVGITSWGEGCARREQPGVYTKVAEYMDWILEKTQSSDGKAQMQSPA
Chain of human plasma kallikrein (P03952 20-390 partner): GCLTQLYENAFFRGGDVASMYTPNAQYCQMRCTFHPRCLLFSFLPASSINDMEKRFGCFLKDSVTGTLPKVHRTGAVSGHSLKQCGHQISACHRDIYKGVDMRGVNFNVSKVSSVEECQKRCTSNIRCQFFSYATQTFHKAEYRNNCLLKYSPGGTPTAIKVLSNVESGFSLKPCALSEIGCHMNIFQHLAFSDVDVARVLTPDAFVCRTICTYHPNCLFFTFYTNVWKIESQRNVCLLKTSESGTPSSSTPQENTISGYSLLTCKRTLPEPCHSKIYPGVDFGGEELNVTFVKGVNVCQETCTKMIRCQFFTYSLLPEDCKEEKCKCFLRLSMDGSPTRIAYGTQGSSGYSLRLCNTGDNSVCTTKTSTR
Chain of Factor XIa (P03951 388-625): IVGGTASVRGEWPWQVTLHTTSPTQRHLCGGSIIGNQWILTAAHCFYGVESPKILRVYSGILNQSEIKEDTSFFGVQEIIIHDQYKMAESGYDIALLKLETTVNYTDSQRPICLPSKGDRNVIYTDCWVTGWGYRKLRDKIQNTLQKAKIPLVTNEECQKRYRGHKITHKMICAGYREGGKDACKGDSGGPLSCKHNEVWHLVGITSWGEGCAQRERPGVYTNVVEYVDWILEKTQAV
Chain of Factor XIa (P03951 19-387 partner): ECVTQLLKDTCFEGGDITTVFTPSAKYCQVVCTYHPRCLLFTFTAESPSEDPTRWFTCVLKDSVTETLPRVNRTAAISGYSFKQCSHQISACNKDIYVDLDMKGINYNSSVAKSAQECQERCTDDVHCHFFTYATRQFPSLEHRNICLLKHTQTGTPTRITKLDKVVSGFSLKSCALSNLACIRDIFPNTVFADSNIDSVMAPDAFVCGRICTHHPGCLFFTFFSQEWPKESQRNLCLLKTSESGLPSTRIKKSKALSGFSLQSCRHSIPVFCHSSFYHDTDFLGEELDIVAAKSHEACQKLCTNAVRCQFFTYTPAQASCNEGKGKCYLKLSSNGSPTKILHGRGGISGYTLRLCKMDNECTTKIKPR

As for `CCC(=O)Nc1ccccc1-c1c[nH]c([C@@H]2CC[C@H]3CC(c4c(-n5cnnn5)ccc(Cl)c4F)=CC(=O)N32)n1` (relative stereo) [Example 296, N-(2-(24(3S,8aS*)-7-(3-Chloro-2-fluoro-6-(1H-tetrazol-1-yl)phenyl)-5-oxo-1,2,3,5,8,8a-hexahydroindolizin-3-yl)-1H-imidazol-4-yl)phenyl)propionamide], the IC50 on human plasma kallikrein amounted to 5.4 nM; at Factor XIa (kinetic reads over 30 min, 5Fam-KLTRAETV-K5Tamra substrate 15 μM), 0.0006 µM.

For the compound `Cn1c(=O)[nH]c2ccc(-c3cnc([C@@H]4CC[C@H]5CC(c6c(-n7cnnn7)ccc(Cl)c6F)=CC(=O)N54)[nH]3)cc21` (relative stereo) [Example 299, 6-(2-((3S,8aS*)-7-(3-Chloro-2-fluoro-6-(1H-tetrazol-1-yl)phenyl)-5-oxo-1,2,3,5,8,8a-hexahydroindolizin-3-yl)-1H-imidazol-5-yl)-1-methyl-1H-benzo[d]imidazol-2(3H)-one], the IC50 at human plasma kallikrein was 5.6 nM; at Factor XIa (setting [1]) it was 0.0052 µM.

As to `Cn1c(=O)[nH]c2ccc(-c3cnc([C@@H]4CC[C@@H]5CC(c6c(-n7cnnn7)ccc(Cl)c6F)=CC(=O)N54)[nH]3)cc21` (relative stereo) [Example 300, 6-(2-((3S,8aR*)-7-(3-Chloro-2-fluoro-6-(1H-tetrazol-1-yl)phenyl)-5-oxo-1,2,3,5,8,8a-hexahydroindolizin-3-yl)-1H-imidazol-5-yl)-1-methyl-1H-benzo[d]imidazol-2(3H)-one], the values for the IC50 on human plasma kallikrein and at Factor XIa (setting [1]) were 2 nM and 0.0014 µM, respectively.

On to `COC(=O)Nc1ccccc1-c1cnc([C@@H]2CC[C@@H]3CC(c4c(-n5cnnn5)ccc(Cl)c4F)=CC(=O)N32)[nH]1` (relative stereo) [Example 301, Methyl 2-(2-((3S,8aR*)-7-(3-chloro-2-fluoro-6-(1H-tetrazol-1-yl)phenyl)-5-oxo-1,2,3,5,8,8a-hexahydroindolizin-3-yl)-1H-imidazol-4-yl)phenylcarbamate], for which the half-maximal inhibitory concentration (IC50) was found to be 17.7 nM on human plasma kallikrein and 0.0031 µM on Factor XIa (setting [1]).

For `COC(=O)Nc1ccccc1-c1cnc([C@@H]2CC[C@H]3CC(c4c(-n5cnnn5)ccc(Cl)c4F)=CC(=O)N32)[nH]1` (relative stereo) [Example 302, Methyl 2-(24(3S,8aS*)-7-(3-chloro-2-fluoro-6-(1H-tetrazol-1-yl)phenyl)-5-oxo-1,2,3,5,8,8a-hexahydroindolizin-3-yl)-1H-imidazol-4-yl)phenylcarbamate], the IC50 came to 29.1 nM at human plasma kallikrein and 0.0104 µM on Factor XIa (setting [1]).

As for `Cn1c(=O)[nH]c2cc(-c3cnc([C@@H]4CC[C@@H]5CC(c6c(-n7cnnn7)ccc(Cl)c6F)=CC(=O)N54)[nH]3)ccc21` (relative stereo) [Example 303, 5-(24(3S,8aR*)-7-(3-Chloro-2-fluoro-6-(1H-tetrazol-1-yl)phenyl)-5-oxo-1,2,3,5,8,8a-hexahydroindolizin-3-yl)-1H-imidazol-5-yl)-1-methyl-1H-benzo[d]imidazol-2(3H)-one], the values for the IC50 at human plasma kallikrein and on Factor XIa (setting [1]) were 4.4 nM and 0.0009 µM, respectively.

On to `Cn1cc(-c2ccccc2NC(=O)C2CC2)nc1[C@@H]1CC[C@H]2CC(c3c(-n4cnnn4)ccc(Cl)c3F)=CC(=O)N21` (relative stereo) [Example 304, N-(2-(2-((3S,8aS*)-7-(3-Chloro-2-fluoro-6-(1H-tetrazol-1-yl)phenyl)-5-oxo-1,2,3,5,8,8a-hexahydroindolizin-3-yl)-1-methyl-1H-imidazol-4-yl)phenyl)cyclopropanecarboxamide], for which the values for the IC50 on human plasma kallikrein and on Factor XIa (setting [1]) were 323 nM and greater than 0.1 µM, respectively.

On to `CC(C)C(=O)Nc1ccccc1-c1cnc([C@@H]2CC[C@@H]3CC(c4c(-n5cnnn5)ccc(Cl)c4F)=CC(=O)N32)[nH]1` (relative stereo) [Example 305, N-(2-(2-((3S,8aR*)-7-(3-Chloro-2-fluoro-6-(1H-tetrazol-1-yl)phenyl)-5-oxo-1,2,3,5,8,8a-hexahydroindolizin-3-yl)-1H-imidazol-4-yl)phenyl)isobutyramide], for which the IC50 was found to be 1.7 nM at human plasma kallikrein and 0.0007 µM at Factor XIa (setting [1]).

For the compound `CC(=O)Nc1ccccc1-c1cnc([C@@H]2CC[C@H]3CC(c4c(-n5cnnn5)ccc(Cl)c4F)=CC(=O)N32)[nH]1` (relative stereo) [Example 306, N-(2-(24(3S,8aS*)-7-(3-Chloro-2-fluoro-6-(1H-tetrazol-1-yl)phenyl)-5-oxo-1,2,3,5,8,8a-hexahydroindolizin-3-yl)-1H-imidazol-4-yl)phenyl)acetamide], the results for the IC50 at human plasma kallikrein and on Factor XIa (setting [1]) were 11.8 nM and 0.0005 µM, respectively.

Turning to `Nc1ccccc1-c1cnc([C@@H]2CC[C@H]3CC(c4c(-n5cnnn5)ccc(Cl)c4F)=CC(=O)N32)[nH]1` (relative stereo) [Example 308, (3S,8aS*)-3-(4-(2-Aminophenyl)-1H-imidazol-2-yl)-7-(3-chloro-2-fluoro-6-(1H-tetrazol-1-yl)phenyl)-2,3,8,8a-tetrahydroindolizin-5(1H)-one], the IC50 is greater than 100 nM on human plasma kallikrein and 0.0927 µM on Factor XIa (setting [1]).

Regarding `Nc1ccccc1-c1cnc([C@@H]2CC[C@@H]3CC(c4c(-n5cnnn5)ccc(Cl)c4F)=CC(=O)N32)[nH]1` (relative stereo) [Example 310, (3S,8aR*)-3-(4-(2-Aminophenyl)-1H-imidazol-2-yl)-7-(3-chloro-2-fluoro-6-(1H-tetrazol-1-yl)phenyl)-2,3,8,8a-tetrahydroindolizin-5(1H)-one], the IC50 at human plasma kallikrein was greater than 100 nM; on Factor XIa (setting [1]), 0.0336 µM.

For `COC(=O)Nc1ccc(-c2cnc([C@@H]3CC[C@H]4CC(c5c(F)ccc(Cl)c5OC(F)F)=CC(=O)N43)[nH]2)cc1` (relative stereo) [Example 319, Methyl (4-(2-((3S,8aS)-7-(3-Chloro-2-(difluoromethoxy)-6-fluorophenyl)-5-oxo-1,2,3,5,8,8a-hexahydroindolizin-3-yl)-1H-imidazol-5-yl)phenyl)carbamate], the IC50 on human plasma kallikrein was determined as 455 nM; at Factor XIa (μM, kinetic reads), 2.2 µM.

For `COC(=O)Nc1ccc(-c2cnc([C@@H]3CC[C@H]4CC(c5c(OC(F)F)ccc(Cl)c5F)=CC(=O)N43)[nH]2)cc1` (relative stereo) [Example 320, Methyl (4-(2-((3S,8aS)-7-(3-Chloro-6-(difluoromethoxy)-2-fluorophenyl)-5-oxo-1,2,3,5,8,8a-hexahydroindolizin-3-yl)-1H-imidazol-5-yl)phenyl)carbamate], the IC50 at human plasma kallikrein was 3.8 nM; at Factor XIa (setting [1]), 0.0235 µM.

For the compound `O=C1C=C(c2c(-n3cnnn3)ccc(Cl)c2F)C[C@@H]2CC[C@@H](c3ncc(-c4cc[n+]([O-])cc4)[nH]3)N12` (relative stereo) [Example 321, 4-(2-((3S,8aS)-7-(3-Chloro-2-fluoro-6-(1H-tetrazol-1-yl)phenyl)-5-oxo-1,2,3,5,8,8a-hexahydroindolizin-3-yl)-1H-imidazol-5-yl)pyridine 1-oxide], the values for the IC50 on human plasma kallikrein and at Factor XIa (setting [1]) were 342 nM and 0.0787 µM, respectively.

In the case of `COC(=O)Nc1ccc(-c2cnc([C@@H]3CC[C@H]4CC(c5c(-n6cnnn6)ccc(Cl)c5F)=CC(=O)N43)[nH]2)nc1` (relative stereo) [Example 322, Methyl (6-(2-((3S,8aS)-7-(3-Chloro-2-fluoro-6-(1H-tetrazol-1-yl)phenyl)-5-oxo-1,2,3,5,8,8a-hexahydroindolizin-3-yl)-1H-imidazol-5-yl)pyridin-3-yl)carbamate], the IC50 on human plasma kallikrein is 10.3 nM; on Factor XIa (setting [1]), 0.0008 µM.

Consider `CC1(C)C[C@@H](c2ncc(-c3ccc(N)nc3Cl)[nH]2)N2C(=O)C=C(c3c(-n4cnnn4)ccc(Cl)c3F)C[C@@H]21` (relative stereo) [Example 335, (3S,8aR)-3-(5-(6-Amino-2-chloropyridin-3-yl)-1H-imidazol-2-yl)-7-(3-chloro-2-fluoro-6-(1H-tetrazol-1-yl)phenyl)-1,1-dimethyl-2,3,8,8a-tetrahydroindolizin-5(1H)-one], for which the IC50 is 22.7 nM at human plasma kallikrein and 0.0057 µM at Factor XIa (setting [1]).

Consider `CC1(C)C[C@@H](c2ncc(-c3ccc(N)nc3F)[nH]2)N2C(=O)C=C(c3c(-n4cnnn4)ccc(Cl)c3F)C[C@@H]21` (relative stereo) [Example 336, (3S,8aR)-3-(5-(6-Amino-2-fluoropyridin-3-yl)-1H-imidazol-2-yl)-7-(3-chloro-2-fluoro-6-(1H-tetrazol-1-yl)phenyl)-1,1-dimethyl-2,3,8,8a-tetrahydroindolizin-5(1H)-one], for which the IC50 turned out to be 47.9 nM at human plasma kallikrein and 0.0093 µM on Factor XIa (setting [1]).

Regarding `CC1(C)C[C@@H](c2ncc(-c3ccc(N)nc3F)[nH]2)N2C(=O)C=C(c3c(-n4cnnn4)ccc(Cl)c3F)C[C@H]21` (relative stereo) [Example 337, (3S,8aS)-3-(5-(6-Amino-2-fluoropyridin-3-yl)-1H-imidazol-2-yl)-7-(3-chloro-2-fluoro-6-(1H-tetrazol-1-yl)phenyl)-1,1-dimethyl-2,3,8,8a-tetrahydroindolizin-5(1H)-one], the IC50 at human plasma kallikrein was 12.7 nM; on Factor XIa (setting [1]), 0.0015 µM.

On to `CC1(C)C[C@@H](c2ncc(-c3ccc(N)nc3Cl)[nH]2)N2C(=O)C=C(c3c(-n4cnnn4)ccc(Cl)c3F)C[C@H]21` (relative stereo) [Example 338, (3S,8aS)-3-(5-(6-Amino-2-chloropyridin-3-yl)-1H-imidazol-2-yl)-7-(3-chloro-2-fluoro-6-(1H-tetrazol-1-yl)phenyl)-1,1-dimethyl-2,3,8,8a-tetrahydroindolizin-5(1H)-one], for which the IC50 on human plasma kallikrein worked out at 8.4 nM; on Factor XIa (setting [1]), 0.001 µM.
